The values below come from patent publication US4835157A, “Thieno- and furopyrimidine-2,4-dione piperidine derivatives as serotonin antagonists and alpha adrenergic blocking agents” (Ortho Pharmaceutical Corporation, priority 1988, dated 1989).

One assay has as its target T1, 5HT1A receptor (Rattus norvegicus, UniProt P19327).
T1 construct: Membrane fragments were prepared from prefrontal cortex; from tissue; host or cells: prefrontal/frontal cortex of female rats (about 150 g), membrane fragments
T1 sequence (P19327 1-422): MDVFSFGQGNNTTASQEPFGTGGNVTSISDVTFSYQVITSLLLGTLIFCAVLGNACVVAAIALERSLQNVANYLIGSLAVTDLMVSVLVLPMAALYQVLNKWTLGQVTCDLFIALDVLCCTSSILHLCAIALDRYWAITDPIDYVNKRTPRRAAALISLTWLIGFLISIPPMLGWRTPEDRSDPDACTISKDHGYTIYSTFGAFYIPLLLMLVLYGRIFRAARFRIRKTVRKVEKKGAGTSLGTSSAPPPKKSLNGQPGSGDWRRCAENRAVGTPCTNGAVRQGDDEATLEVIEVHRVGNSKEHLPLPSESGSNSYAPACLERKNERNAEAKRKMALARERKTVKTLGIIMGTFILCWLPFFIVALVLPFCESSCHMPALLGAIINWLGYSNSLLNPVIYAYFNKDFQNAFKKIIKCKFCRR
Kind of assay: Brain Serotonin (5HT1A) radioreceptor Assay (3H-8-OH DPAT displacement, rat frontal cortex membranes). It counts as binding. The conditions noted are these: for inhibition at 1 µM: read-out: Brain 5-HT1 Receptor % displaced (% inhibition). On the procedure:
Brain Serotonin (5HT1A) radioreceptor Assay
The text objects of this procedure were rat frontal cortex membranes. Membrane fragments were prepared from prefrontal cortex disected from brains obtained from female rats (≈150 g). The 5HT1A sites were labeled with ^3 H-8-OH dipropylaminotetralin (8-OH-DPAT). Membrane fragments, ^3 H-8-OH DPAT, TRIS buffer (pH 7.4) and unlabeled compound were incubated for 10 minutes at 37° C. and then for 10 minutes at 4° C. Separation of bound from unbound ^3 H-8-OH DPAT was performed by vacuum filtration on a glass fiber disc. The ability of a compound to compete with ^3 H-8-OH DPAT for binding sites is a measure of the affinity of the compound for the 5HT1A receptor. Specific binding was determined by the difference between total counts bound and the counts bound in the presence of […] 5-hydroxytryptamine.

In assay [1] the test system is Serotonin-Induced Smooth Muscle Contractions (rabbit thoracic aorta). Kind of assay: Inhibition of Serotonin-Induced Smooth Muscle Contractions (isolated thoracic aorta strips). It counts as cell-based. To be noted: Oryctolagus cuniculus, 10 min, concentration shifting the serotonin dose curve 10x to the right, 10 min preincubation, read-out: 5-HT-Induced Smooth Muscle Contraction DR10. How it is done: Inhibition of Serotonin-Induced Smooth Muscle Contractions
The test objects of this Example were canines and rabbits. Rabbits were sacrificed by T-61 injection and the thoracic aorta was removed immediately. The aorta was placed in warmed, oxygenated Krebs-Henseleit buffer. After the tissue was cleaned, a 2-3 mm wide strip was cut helically from each aorta. A strip of approximately 5 cm was suspended in Krebs-Henseleit buffer at 37° C. in a 25 ml tissue bath and the tissues equilibrated at an initial resting tension of 4 g for 90-120 minutes. An initial serotonin dose curve, 0.01-10 μM was then done on each tissue, followed by a 60 minute washout and reequilibration. The test drug was then added for a 10 minute preincubation and another serotonin dose curve was done using 0.01-100 μM.
Results are expressed as DR10 values. This is the concentration of the compound required to shift the serotonin dose curve 10x to the right, i.e., the concentration of antagonist at which the concentration of serotonin required for 50% maximal contraction is increased ten-fold.

The test system of assay [2] is serotonin-induced platelet aggregation. The experiment in a line: Platelet Aggregation Assay (serotonin-induced). It counts as cell-based. The conditions noted are these: Platelet; human plasma, serotonin 5 μM. How it is done: Platelet Aggegation Assay
Human blood was collected into tubes containing sodium citrate. The plasma was separated by centrifugation and was used as the source of platelets. Serotonin (5 μM) was used as the agonist to induce platelet aggregation. A control aggregation curve (as measured by the decrease in absorbance in transmitted light) was obtained in the presence of serotonin and in the absence of test compound. The test compound was added to an identical sample in a cuvette for one minute before addition of serotonin to yield the experimental curve.

Assay [3] deals with alpha1 adrenergic receptor. The experiment in a line: Alpha1 Blockade in vivo (inhibition of phenylephrine pressor response). On the set-up: species or system spontaneously hypertensive rats (SHR). The conditions noted are these: anesthetized, vagotomized SHR; i.v. On the procedure: The potency of these compounds as alpha1 adrenergic antagonists was determined using the following procedure: adult male spontaneously hypertensive rats (SHR) were anesthetized and bilaterally vagotomized. A carotid artery and jugular vein were cannulated for monitoring mean arterial blood pressure and drug administration, respectively. The percent inhibition of alpha1 adrenergic receptor activation was quantified by measuring pressor responses to phenylephrine before and after antagonist treatment. […] Compounds were tested to the limits of their solubility for intravenous administration.

Assay [4] relates to Spontaneously Hypertensive Rats (SHR). Kind of assay: Antihypertensive Activity in Spontaneously Hypertensive Rats (SHR). It counts as in vivo, rat. The conditions noted are these: @ 5 mg/kg p.o., 4 h monitoring. How it is done: Antihypertensive Activity in Spontaneously Hypertensive Rats (SHR)
Antihypertensive activity was assessed using the following procedure. Adult male SHR were surgically prepared with arterial cannuli under light ether anesthesia and given 60-90 minute post-surgical recovery. Mean arterial pressure (MAP) was continuously monitored via the arterial line. After baseline MAP was recorded, groups of 3-6 SHR received a single dose of drug or vehicle (0.5% methylcellulose) administered by gavage at doses of 1 to 5 mg/kg.MAP was monitored for four hours post-dosing.
Maximal changes in MAP were reported.

The next assay has as its system serotonin receptors. The experiment in a line: Inhibition of 5-HTP-Induced Head Twitching. The format is in vivo. To be noted: male CD1 mice; for Inhibit. of 5-HTP-Head Twitch ED50: 5-HTP 160 mg/kg i.v. after one hour. How it is done: Inhibition of 5-HTP-Induced Head Twitching
This test detects compounds with antagonistic activity of serotonin receptors in vivo, and is a modified procedure of Corne, Pickering and Warner, Brit. J. Pharmacol. 20, 106 (1963). Groups of male CD1 mice were fasted overnight but allowed water ad libitum. They were deprived of water during the course of the experiment. The mice were weighed and treated orally or parenterally with the test compound in a dose volume of 10 ml/kg. Doses of test substance were calculated based upon the active compound. Substances for oral administration were dissolved or suspended in a 0.5% aqueous methylcellulose (15 centipoises) vehicle containing 4 ml of Tween 80/l.
A dose of 160 mg/kg of L-5-hydroxytryptophan (5-HTP) was administered i.v. in a dose volume of 5 ml/kg after one hour. The test mouse was restrained in a rodent restrainer that allowed the tail to extend out the back. The tail was then placed in tepid (but not scalding) water for approximately 10 seconds to soften the skin and dilate the tail vein. A 1 ml syringe and 25 gauge (5/8 inch) needle was used to administer the 5-HTP solution into one of the lateral tail veins.
A timer was started after dosing with 5-HTP to the first animal of the test group. […] A head twitch involves the head, neck and ears and has the appearance of an exaggerated pinal reflex. The number of head twitches for each individual vehicle-treated mouse were recorded to establish a historical baseline.
The active compounds in the test block the twitch response (the response rated all or none).

Assay [5] deals with T2, 5HT2 (Rattus norvegicus, UniProt P14842). The experiment in a line: Brain Serotonin (5-HT2) Radioreceptor Assay (3H-ketanserin displacement, rat frontal cortex membranes). It counts as binding. On the set-up: dissected from brains obtained from female rats; from tissue; host or cells: frontal cortex of female rats (about 150 g), membrane fragments. To be noted: 15 min at 37° C. On the procedure: Brain Serotonin (5-HT2) Radioreceptor Assay
The test objects of this Example were rat frontal cortex membranes. Mebrane fragments were prepared from the frontal cortex dissected from brains obtained from female rats (≈150 g). […] Compound bound to the receptor site was separated from the remaining unbound compound by vacuum filtration. […] Specific binding was determined by the difference between total counts bound and counts bound in the presence of 10^-6 M methysergide.

For assay [6], the target named is T2, 5HT2. The experiment in a line: 5HT2 Blockade in vivo (antagonism of 5HT induced pressor responses). More on the design: Spontaneously hypertensive rats were anesthetized with sodium pentobarbital; from tissue; host or cells: whole animal: anesthetized spontaneously hypertensive rats (vasculature); species or system spontaneously hypertensive rats. To be noted: for ED50: rat, iv, read-out: 5-HT-Induced Pressor Response ED50. How it is done: Antagonism of 5HT induced pressor responses was used to assess 5HT2 blockade in vivo. Spontaneously hypertensive rats were anesthetized with sodium pentobarbital (50 mg/kg, i.p.). The right carotid artery and vein were cannulated for pressure recording and drug injection, respectively. The trachea was cannulated, the rat placed on a respirator and ventilated with room air at 50-60 breaths/minute. Rats were pretreated with prazosin hydrochloride (1 mg/kg, i.v., blous) and pentolinium tartrate (5 mg/kg, i.v., bolus). After 10 minutes equilibration, the rat was challenged with 5HT (100 μg/kg) which elevates mean arterial pressure (MAP) 60-100 mmHg; non-responsive rats were discarded.
After a baseline had been reestablished, bolus injections of 5HT (100 μg/kg, i.v.) were given and the MAP responses were evaluated both pre- and post-drug administration. 5HT challenges were repeated 10 minutes after each dose of antagonist. Up to three cumulative doses of the antagonist were given to a single animal.

Where two headings read alike, the source gives them in different places. A value given as a limit tells only on which side of the number the result lay.

T2 sequence (P14842 whole entry, the tested form may be a part): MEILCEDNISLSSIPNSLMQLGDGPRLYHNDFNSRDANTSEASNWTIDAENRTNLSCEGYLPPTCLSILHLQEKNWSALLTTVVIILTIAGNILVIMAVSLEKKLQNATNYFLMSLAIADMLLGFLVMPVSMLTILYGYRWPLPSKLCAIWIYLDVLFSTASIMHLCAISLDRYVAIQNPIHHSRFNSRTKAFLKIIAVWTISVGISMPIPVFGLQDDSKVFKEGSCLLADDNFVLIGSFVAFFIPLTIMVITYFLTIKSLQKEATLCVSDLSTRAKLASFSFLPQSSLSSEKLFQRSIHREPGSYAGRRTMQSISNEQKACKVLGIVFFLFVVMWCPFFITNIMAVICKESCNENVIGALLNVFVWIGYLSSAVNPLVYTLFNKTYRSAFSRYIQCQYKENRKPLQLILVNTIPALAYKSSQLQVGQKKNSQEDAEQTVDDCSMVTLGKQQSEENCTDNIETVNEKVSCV

On to `O=C(c1ccc(F)cc1)C1CCN(CCn2c(=O)[nH]c3ccsc3c2=O)CC1` [Example 1, 3-[2-[4-(4-Fluorobenzoyl)piperidin-1-yl]ethyl]thieno[3,2-d]pyrimidine-2,4-dione], for which the IC50 at 5HT1A receptor (rat frontal cortex membranes, 3H-8-OH DPAT, pH 7.4, read-out: Brain 5-HT1 Receptor IC50) is 16000 nM; in assay [2], 34 nM; at 5HT2 [5], 0.6 nM. In addition, in assay [1], the IC (10-fold shift) was 0.0063 µM. The “Phenylephrine-Induced Pressor Response ED50” value in assay [3] is over 10 mg/kg. In assay [4], the “Antihypertensive Activity, p.o., % AMAP (maximal change in mean arterial pressure)” value is reported as -10%. Also, in the assay with serotonin receptors, the “Inhibit. of 5-HTP-Head Twitch ED50” value is given as 2.1 mg/kg, p.o. At 5HT2 [6], the ED50 amounted to 0.009 mg/kg.

Regarding `O=C(c1ccc(F)cc1)C1CCN(CCn2c(=O)[nH]c3ccccc3c2=O)CC1` [Ketanserin, reference compound], the IC50 at 5HT1A receptor turned out to be 24500 nM; in assay [2], 32 nM. The “Phenylephrine-Induced Pressor Response ED50” value in assay [3] was 1.08 mg/kg. In addition, in assay [4], the “Antihypertensive Activity, p.o., % AMAP (maximal change in mean arterial pressure)” value is given as -33%. The “Inhibit. of 5-HTP-Head Twitch ED50” value with serotonin receptors is given as 0.67 mg/kg, p.o. For the same compound, at 5HT2 [6] (anesthetized SHR, 5HT 100 μg/kg i.v., cumulative doses of antagonist), the “5-HT-Induced Pressor Response ED50” value is reported as 0.013 mg/kg.

`O=c1[nH]c2sccc2c(=O)n1CCN1CCC(=C(c2ccc(F)cc2)c2ccc(F)cc2)CC1` [Example 6, 3-[2-[4-[Bis(4-fluorophenyl)methylene]piperidin-1-yl]ethyl]thieno[2,3-d]pyrimidine-2,4-dione]: the inhibition at 1 µM at 5HT1A receptor (3H-8-OH DPAT) came to 24%. Also, the IC (10-fold shift) in assay [1] was 0.00899 µM. Besides, the 50% inhibitory concentration (IC50) in assay [2] is 4500 nM; on 5HT2 [5], 0.8 nM. For the same compound, in assay [3], the “Phenylephrine-Induced Pressor Response ED50” value is over 3 mg/kg. For the same compound, the “Antihypertensive Activity, p.o., % AMAP (maximal change in mean arterial pressure)” value in assay [4] was -13%. The ED50 at 5HT2 [6] was 0.23 mg/kg.

Consider `CC(=O)n1c(=O)n(CCN2CCC(C(=O)c3ccc(F)cc3)CC2)c(=O)c2ccsc21` [Example 3, 1-Acetyl-3-[2-[4-(4-fluorobenzoyl)piperidin-1-yl]ethyl]thieno[2,3-d]pyrimidine-2,4-dione], for which the inhibition at 1 µM at 5HT1A receptor (3H-8-OH DPAT) is 13%. The IC (10-fold shift) in assay [1] amounted to 0.0229 µM. The IC50 in assay [2] was 8000 nM; at 5HT2 [5] it was 2.4 nM. In assay [3], the “Phenylephrine-Induced Pressor Response ED50” value was 10.0 mg/kg. In addition, in assay [4], the “Antihypertensive Activity, p.o., % AMAP (maximal change in mean arterial pressure)” value was -4%. In addition, the “Inhibit. of 5-HTP-Head Twitch (result in words)” value in the assay with serotonin receptors (@ 10 (mg/kg, p.o.)) was “Inact”. The ED50 on 5HT2 [6] is 0.025 mg/kg.
